Assays:
[1] = target: T1, HCV polymerase (NS5B570n-Con1) (Hepatitis C virus genotype 1b, UniProt Q9WMX2); experiment: HCV NS5B RNA polymerase activity assay; assay type: biochemical, HCV Con1 strain
T1 construct: contains a 21 amino acid deletion at the C-terminus relative to the full-length HCV polymerase; 6-histidine (N); made in house; host or cells: E. coli BL21(DE) pLysS, plasmid pET17b
Experimental: The enzymatic activity of HCV polymerase (NS5B570n-Con1) was measured as the incorporation of radiolabeled nucleotide monophosphates into acid insoluble RNA products. Unincorporated radiolabeled substrate was removed by filtration and scintillant was added to the washed and dried filter plate containing radiolabeled RNA product. The amount of RNA product generated by NS5B570-Con1 at the end of the reaction was directly proportional to the amount of light emitted by the scintillant.
The N-terminal 6-histidine tagged HCV polymerase, derived from HCV Con1 strain, genotype 1b (NS5B570n-Con1) contains a 21 amino acid deletion at the C-terminus relative to the full-length HCV polymerase and was purified from E. coli strain BL21(DE) pLysS. The construct, containing the coding sequence of HCV NS5B Con1 (GenBank accession number AJ242654) was inserted into the plasmid construct pET17b, downstream of a T7 promoter expression cassette and transformed into E. coli. A single colony was grown overnight as a starter culture and later used inoculate 10 L of LB media supplemented with 100 μg/mL ampicillin at 37° C. Protein expression was induced by the addition of 0.25 mM isopropyl-β-D-thiogalactopyranoside (IPTG) when optical density at […] of the culture was between 0.6 and 0.8 and cells were harvested after 16 to 18 h at 30° C. NS5B570n-Con1 was purified to homogeneity using a three-step protocol including subsequent column chromatography on Ni-NTA, SP-Sepharose HP and Superdex 75 resins.
Each 50 μl enzymatic reaction contained 20 nM RNA template derived from the complementary sequence of the Internal Ribosome Entry Site (cIRES), 20 nM NS5B570n-Con1 enzyme, 0.5 μCi of tritiated UTP (Perkin Elmer catalog no. TRK-412; specific activity: 30 to 60 Ci/mmol; stock solution concentration from 7.5×10^-5 M to 20.6×10^-6 M), 1 μM each ATP, CTP, and GTP, 40 mM Tris-HCl pH 8.0, 40 mM NaCl, 4 mM DTT (dithiothreitol), 4 mM MgCl2, and 5 μl of compound serial diluted in DMSO. Reaction mixtures were assembled in 96-well filter plates (cat #MADVN0B, Millipore Co.) and incubated for 2 h at 30° C. Reactions were stopped by addition of 10% final (v/v) trichloroacetic acid and incubated for 40 min at 4° C. Reactions were filtered, washed with 8 reaction volumes of 10% (v/v) trichloroacetic acetic acid, 4 reaction volumes of 70% (v/v) ethanol, air dried, and 25 μl of scintillant (Microscint 20, Perkin-Elmer) was added to each reaction well.
The amount of light emitted from the scintillant was converted to counts per minute (CPM) on a Topcount® plate reader (Perkin-Elmer, Energy Range: Low, Efficiency Mode: Normal, Count Time: 1 min, Background Subtract: none, Cross talk reduction: Off).
Data was analyzed in Excel® (Microsoft®) and ActivityBase® (Idbs®). The reaction in the absence of enzyme was used to determine the background signal, which was subtracted from the enzymatic reactions. Positive control reactions were performed in the absence of compound, from which the background corrected activity was set as 100% polymerase activity. All data was expressed as a percentage of the positive control. The compound concentration at which the enzyme-catalyzed rate of RNA synthesis was reduced by 50% (IC50) was calculated by fitting
[formula] equation (i) to the data. where “Y” corresponds to the relative enzyme activity (in %), “% Min” is the residual relative activity at saturating compound concentration, “% Max” is the relative maximum enzymatic activity, “X” corresponds to the compound concentration, and “S” is the Hill coefficient (or slope).

[2] = test system: HCV replicon cells (2209-23); experiment: HCV replicon assay (Renilla luciferase reporter); assay type: cell-based, HCV genotype 1b; conditions: Hepatitis C virus, 72 h; three days incubation
in vitro = conditions: human
HCV = conditions: monotherapy; cited from earlier work

SMILES	IC50 [1] [µM]	melting point [°C]	IC50 [2] [µM]	CC50 (in vitro) [µM]	effect on serum levels of HCV-RNA (HCV)	patients with serum amino transferase levels reduced to normal (HCV) [%]
COc1cc(CN2CCCS2(=O)=O)c(-c2ccc[nH]c2=O)cc1C(C)(C)C [Compound I-21, 3-[5-tert-Butyl-2-(1,1-dioxo-1λ^6-isothiazolidin-2-ylmethyl)-4-methoxy-phenyl]-1H-pyridin-2-one]	0.017	109.4 to 126.9	0.168			
COc1cc(CNC(=O)c2ccc(O)cc2)c(-c2ccc[nH]c2=O)cc1C(C)(C)C [Compound I-38, N-[4-tert-Butyl-5-methoxy-2-(2-oxo-1,2-dihydro-pyridin-3-yl)-benzyl]-4-hydroxy-benzamide]	0.016	205 to 210	0.31	92.9		
COc1cc(CNC(=O)c2cccc(NS(C)(=O)=O)c2)c(-c2ccc[nH]c2=O)cc1C(C)(C)C [Compound I-63]	0.012	259 to 260	0.034	43.7		
COc1cc(CN(c2ccccc2)S(C)(=O)=O)c(-c2ccc[nH]c2=O)cc1C(C)(C)C [Compound I-34]	0.013	226 to 227	0.936	44.2		
COc1cc(CNC(=O)[C@H]2CC[C@H](NS(C)(=O)=O)C2)c(-c2ccc[nH]c2=O)cc1C(C)(C)C [Compound I-81, (1S,3S)-3-Methanesulfonylamino-cyclopentanecarboxylic acid 4-tert-butyl-5-methoxy-2-(2-oxo-1,2-dihydro-pyridin-3-yl)-benzylamide]	0.022	158 to 160	0.238			
NC(=O)c1ncn([C@@H]2O[C@H](CO)[C@@H](O)[C@H]2O)n1 [ribavirin, 1-((2R,3R,4S,5R)-3,4-Dihydroxy-5-hydroxymethyl-tetrahydro-furan-2-yl)-1H-[1,2,4]triazole-3-carboxylic acid amide]					does not lower serum levels of HCV-RNA	40
COc1cc(CN(C)S(C)(=O)=O)c(-c2ccc[nH]c2=O)cc1C(C)(C)C [Compound I-86]	0.052	230 to 231				
COc1cc(CN(C)C(=O)c2cccc(NS(C)(=O)=O)c2)c(-c2ccc[nH]c2=O)cc1C(C)(C)C [Compound I-65, N-[4-tert-Butyl-5-methoxy-2-(2-oxo-1,2-dihydro-pyridin-3-yl)-benzyl]-3-methanesulfonylamino-N-methyl-benzamide]	0.013	170 to 172				
COc1cc(CN2C(=O)c3ccccc3C2=O)c(-c2ccc[nH]c2=O)cc1C(C)(C)C [Compound I-33, 2-[4-tert-Butyl-5-methoxy-2-(2-oxo-1,2-dihydro-pyridin-3-yl)-benzyl]-isoindole-1,3-dione]	0.035	277 to 280				
COc1cc(C(C)N(C)S(C)(=O)=O)c(-c2ccc[nH]c2=O)cc1C(C)(C)C (centres unmarked) [Compound I-53, N-{1-[4-tert-Butyl-5-methoxy-2-(2-oxo-1,2-dihydro-pyridin-3-yl)-phenyl]-ethyl}-N-methyl-methanesulfonamide]	0.187	205 to 207				
COc1cc(CN2CCCCC2=O)c(-c2ccc[nH]c2=O)cc1C(C)(C)C [Compound I-23]	0.052	224.6 to 228.9				
COc1cc(C#N)c(-c2ccc[nH]c2=O)cc1C(C)(C)C [Compound I-91]	0.374	247 to 249				
COc1cc(CNS(C)(=O)=O)c(-c2ccc(C)[nH]c2=O)cc1C(C)(C)C [Compound I-37, N-[4-tert-Butyl-5-methoxy-2-(6-methyl-2-oxo-1,2-dihydro-pyridin-3-yl)-benzyl]-methanesulfonamide]	0.146	120 to 125				
COc1cc(CCNS(C)(=O)=O)c(-c2ccc[nH]c2=O)cc1C(C)(C)C [Compound I-17, N-{2-[4-tert-butyl-5-methoxy-2-(2-oxo-1,2-dihydro-pyridin-3-yl)-phenyl]-ethyl}-methanesulfonamide]	0.28	219.3 to 222.4				
COc1cc(CNC(=O)C2CCCC(NS(C)(=O)=O)C2)c(-c2ccc[nH]c2=O)cc1C(C)(C)C (centres unmarked) [Compound I-82]	0.03	162 to 164				
